Experimental data as given in patent US9358228B2, “Therapeutic combinations of netupitant and palonosetron” (Helsinn Healthcare SA, priority 2011, dated 2016).

Columns and labels:
Format in all cases: in vivo, rat
[1] = test system: acetic acid (AA)-induced colonic hypersensitivity in a rodent model; test: Colonic sensitivity assessment: visceromotor response to colorectal distension after acetic acid infusion; conditions: rats; for inhibition of AA-induced colonic hypersensitivity, agent alone: oral, effective dose not given (0.001-1 mg/kg dosed); for effect of 0.001 mg/kg dose alone on colonic and somatic sensitivity: 0.001 mg/kg p.o., agent alone
Protocol: Induction of Acute Visceral and Somatic Hypersensitivity: Visceral and somatic hypersensitivity were induced by infusing dilute (1.5 ml at 0.6%) acetic acid (AA) into the rat colon via a catheter (Intramedic PE 90 tubing) inserted via the anus to the level of the mid-colon. Within 60 mins colonic and somatic hypersensitivity was evident.
Colonic Sensitivity Assessment: Visceromotor responses (VMR) to colorectal distension (CRD) were measured by counting the number of abdominal contractions in response to increasing levels of CRD (0-60 mmHg). On the day of the colonic sensitivity assessment, a minor surgical procedure was performed to attach a strain gauge force transducer onto the abdominal oblique muscle and attached via an adapter cable to a Grass Model 7 Polygraph. The cable was connected to a Model 7P1 Low-Level DC Pre-Amp. The Pre-Amp was set at 0.02 mV/cm sensitivity and was connected to a Model 7DA DC Driver Amp with sensitivity set at […]. A 5 cm latex balloon was inserted into the distal colon. The balloon cannula was connected to a Distender Series IIR barostat (G & J Electronics Inc.) for controlled, isobaric inflation of the balloon and CRD using constant pressure (isobaric) tonic distensions were conducted at 0, 20, 40 and 60 mmHg. Each pressure was maintained for a period 10 min. during which time the number of abdominal muscle contractions were counted. A 10 min. recovery period was allowed between the each distension.
Test Compounds: Following surgery, rats were pre-dosed with Palonosetron (1-hr pre-dose), Netupitant (2-hr pre-dose) or methyl cellulose vehicle. Palonosetron and Netupitant were supplied by Helsinn Healthcare Inc. and were stored at 4° C. until prepared for dosing as a suspension in 1% methyl cellulose solution. The drug suspensions were prepared so that each rat received an oral dosing volume of 0.5 ml per 100 g body weight for doses of 0.001, 0.01, 0.1 or 1 mg/kg. Compounds were prepared fresh on the day of use.
Statistical Analysis: To determine statistical significance between multiple control and treatment groups, data was compared using one-way ANOVA followed by a Bonferroni post-test. Results were deemed significant when p-values were less than 0.05.

[2] = test system: acetic acid (AA)-induced somatic hypersensitivity in a rodent model; test: Somatic sensitivity assessment: von Frey hind paw withdrawal after intracolonic acetic acid; conditions: rats; for inhibition of AA-induced somatic hypersensitivity, agent alone: oral, effective dose not given (0.001-1 mg/kg dosed); for effect of 0.001 mg/kg dose alone on somatic hypersensitivity: 0.001 mg/kg oral, agent alone
Protocol: Induction of Acute Visceral and Somatic Hypersensitivity: Visceral and somatic hypersensitivity were induced by infusing dilute (1.5 ml at 0.6%) acetic acid (AA) into the rat colon via a catheter (Intramedic PE 90 tubing) inserted via the anus to the level of the mid-colon. Within 60 mins colonic and somatic hypersensitivity was evident. Somatic Sensitivity Assessment: Von Frey filaments were used to determine the level of somatic sensitivity in all animals receiving intracolonic infusion of AA. The Von Frey instrument measures the level of somatic sensitivity by recording the minimal force required to elicit hind paw withdrawal. The animals were placed in a mesh-bottomed Von Frey caging apparatus and a nylon filament was steadily pushed against the rat's foot pad until withdrawal of the hind paw. The force in grams which elicited hind paw withdrawal was then recorded. Test Compounds: Following surgery, rats were pre-dosed with Palonosetron (1-hr pre-dose), Netupitant (2-hr pre-dose) or methyl cellulose vehicle. Palonosetron and Netupitant were supplied by […] Healthcare Inc. and were stored at 4° C. until prepared for dosing as a suspension in 1% methyl cellulose solution. The drug suspensions were prepared so that each rat received an oral dosing volume of 0.5 ml per 100 g body weight for doses of 0.001, 0.01, 0.1 or 1 mg/kg. Compounds were prepared fresh on the day of use. Statistical Analysis: To determine statistical significance between multiple control and treatment groups, data was compared using one-way ANOVA followed by a Bonferroni post-test. Results were deemed significant when p-values were less than 0.05.

[3] = test system: SNL and Sham rats; test: Rotarod motor performance; conditions: FIG. 3, 0.03, 0.3 and 3 mg/kg
From the text: The rotarod was also used to assess potential effects on motor performance of Netupitant and Palonosetron. Acceleration of the rotarod was set to increase from 0 to 20 revolutions per minute over the period of one minute. Due to initial, non-linear acceleration, rats were placed on the rotarod locked at a speed of 8 revolutions per minute. The rotarod was then set to accelerate and the latency to fall from the rotarod was timed from this point.

| SMILES | inhibition of AA-induced colonic hypersensitivity, agent alone [1] | effect of 0.001 mg/kg dose alone on colonic and somatic sensitivity [1] | inhibition of AA-induced somatic hypersensitivity, agent alone [2] | effect of 0.001 mg/kg dose alone on somatic hypersensitivity [2] | motor performance, total time spent on a rotarod [3] |
| --- | --- | --- | --- | --- | --- |
| Cc1ccccc1-c1cc(N2CCN(C)CC2)ncc1N(C)C(=O)C(C)(C)c1cc(C(F)(F)F)cc(C(F)(F)F)c1 [Netu, 2-[3,5-bis(trifluoromethyl)phenyl]-N,2-dimethyl-N-[4-(2-methylphenyl)-6-(4-methylpiperazin-1-yl)pyridin-3-yl]propanamide] | significantly inhibited | non-effective | significantly inhibited | non-effective |  |
| Cl.O=C1c2cccc3c2[C@H](CCC3)CN1[C@@H]1CN2CCC1CC2 [Palo, (3aS)-2-[(S)-1-Azabicyclo[2.2.2]oct-3-yl]-2,3,3a,4,5,6-hexahydro-1-oxo-1Hberiz[de]isoquinoline] | significantly inhibited | non-effective | significantly inhibited | non-effective | did not impair motor performance |
